# In US8377884B2, “Variants of C-type natriuretic peptides” (Biomarin Pharmaceutical Inc., priority 2007, dated 2013):
# Tests used:
# Recombinant human NEP = Recombinant human NEP (Homo sapiens, UniProt P08473); assay: In vitro neutral endopeptidase (NEP) cleavage assay; details: NEP digestion for […] in vitro
# Procedure, shortened: (§1)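 Recombinant human NEP (1 ug/mL final) incubated with 100 uM CNP variant in 0.1 M Tris, pH 7, at 37° C for various times, then quenched with EDTA (10 mM final) and heat. Samples reduced and analysed by HPLC and mass spectrometry. Half-life derived from loss of intact variant over time.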
# [1] = molecular target: neutral endopeptidase (NEP) (Homo sapiens, UniProt P08473); assay: as above; details: human, pH 7
# Procedure, shortened: as §1
# NPR-B [2] = molecular target: T1, NPR-B (Mus musculus, UniProt Q6VVW5); assay: Stimulation of cGMP production in NIH3T3 cells; assay type: cell-based, Murine; details: NIH3T3 cells, normalized to cell number and cGMP production with 1 uM wtCNP22
# T1 construct: Murine NIH3T3 cells express endogenously the CNP signaling receptor, NPR-B; endogenous in cells; host or cells: NIH3T3 (murine fibroblasts)
# T1 sequence (Q6VVW5 17-1047): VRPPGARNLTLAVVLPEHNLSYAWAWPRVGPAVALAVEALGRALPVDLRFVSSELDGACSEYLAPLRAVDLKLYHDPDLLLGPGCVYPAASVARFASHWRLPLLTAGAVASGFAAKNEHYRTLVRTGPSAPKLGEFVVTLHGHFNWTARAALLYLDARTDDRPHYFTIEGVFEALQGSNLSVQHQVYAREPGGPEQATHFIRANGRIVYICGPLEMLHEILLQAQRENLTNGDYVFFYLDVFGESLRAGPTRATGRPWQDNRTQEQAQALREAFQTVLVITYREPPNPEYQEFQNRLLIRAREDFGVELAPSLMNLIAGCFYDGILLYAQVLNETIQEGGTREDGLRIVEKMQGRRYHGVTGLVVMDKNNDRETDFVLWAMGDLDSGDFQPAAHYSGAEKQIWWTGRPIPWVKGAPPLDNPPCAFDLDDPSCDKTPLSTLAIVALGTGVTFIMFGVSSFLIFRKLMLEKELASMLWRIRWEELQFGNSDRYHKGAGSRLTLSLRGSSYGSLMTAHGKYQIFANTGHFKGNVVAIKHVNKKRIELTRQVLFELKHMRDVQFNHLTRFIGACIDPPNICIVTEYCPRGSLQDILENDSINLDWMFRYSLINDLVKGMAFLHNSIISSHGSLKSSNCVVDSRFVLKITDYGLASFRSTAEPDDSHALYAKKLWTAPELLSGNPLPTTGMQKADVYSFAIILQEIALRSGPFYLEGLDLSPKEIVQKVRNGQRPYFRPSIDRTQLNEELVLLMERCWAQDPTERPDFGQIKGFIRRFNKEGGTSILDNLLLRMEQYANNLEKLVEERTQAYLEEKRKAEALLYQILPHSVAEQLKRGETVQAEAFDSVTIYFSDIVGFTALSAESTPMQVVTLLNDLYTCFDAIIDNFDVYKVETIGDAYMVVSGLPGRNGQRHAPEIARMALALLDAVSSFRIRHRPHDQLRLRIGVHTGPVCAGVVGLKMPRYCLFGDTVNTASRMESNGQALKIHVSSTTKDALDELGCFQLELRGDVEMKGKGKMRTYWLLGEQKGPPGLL
# [3] = Pharmacokinetics in normal rats after single i.v. or s.c. administration; details: male, rat, in vivo
# Method: Studies were conducted in normal rats to evaluate the pharmacokinetics (PK) profile of CNP22 and certain CNP variants and the time courses of plasma cGMP concentration after single intravenous (i.v.) or subcutaneous (s.c.) administration of the CNP peptides. Plasma CNP immunoreactivity was determined by using a competitive radioimmunoassay (RIA) with an anti-CNP rabbit polyclonal antibody. Plasma cGMP concentration was determined by RIA using a commercially available kit (YAMASA cyclic GMP Assay kit, YAMASA Corporation).
# Normal male rats, 7-8 weeks of age, were used. Recombinant wild-type CNP22, CNP37 and PEO24-CNP27(Arg4) (i.e., PEO24-GANRR-CNP22(K4R)) were evaluated. A dosage of 20 nmol/kg of each CNP peptide as a solution in 5% mannitol was intravenously injected once into the tail, or a dosage of 50 nmol/kg of each CNP peptide as a solution in 0.03 mol/L acetic acid buffer solution, pH 4.0, containing 1% (w/v) benzyl alcohol and 10% (w/v) sucrose, was subcutaneously injected once into the back.
# Plasma CNP immunoreactivity was determined by the competitive RIA using anti-CNP rabbit polyclonal antibody. Standard and QC samples were prepared. Fifty uL of the standard, QC and assay samples were added, respectively, to test tubes containing 50 uL of RIA buffer. Diluted anti-CNP rabbit polyclonal antibody (100 uL) was added to the tubes. All tubes were kept at 4° C. overnight. ^125I-[Tyr^0]-CNP22 solution (100 uL) and rabbit IgG solution (100 uL) were added and left at approximately 4° C. overnight. One milliliter of anti-rabbit IgG goat serum containing 10% polyethylene glycol was added, vortexed and left at approximately 4° C. for at least 1 hour, and then the insoluble fraction was precipitated by centrifugation. After aspiration of the supernatant, the amount of radiation (gamma line) in the sediment was measured by a gamma-counter. Each sample was measured in duplicate, and the mean was adopted as the value determined.
# Plasma CNP immunoreactivity was employed for pharmacokinetics (PK) analysis. PK analysis was performed using WINNONLIN® Professional (Pharsight Corporation). The PK profiles of CNP22, CNP37 and PEO24-CNP27(Arg4) after i.v. administration were calculated using PK parameters such as concentration at 0 hour (C0: extrapolation, pmol/mL), total body clearance (CLtot: mL/min/kg), distribution volume at steady state (Vdss: mL/kg), area under the plasma concentration-time curve (AUC: pmol·min/mL), mean residence time (MRT: min), and half-life (T1/2: min). The PK profiles of the CNP peptides after s.c. administration were calculated using PK parameters such as maximum plasma concentration (Cmax: pmol/mL), time to reach Cmax (Tmax: min), area under the plasma concentration-time curve (AUC: pmol·min/mL), mean residence time (MRT: min), and half-life (T1/2: min).
# in vivo = details: FVB/N, mouse, plasma, iv, 100 nmol/kg
# Method: To determine CNP variants having increased NEP resistance, for efficacy study in FGFR3^ach mice (see Example 11), a pharmacokinetics (PK) study is carried out that compares the pharmacokinetics properties of CNP variants to wild-type CNP22. The FGFR3^ach mouse is a mutant mouse model of achondroplasia, containing a single transgene on a background of FVB mice.
# Wild-type CNP22 or variant thereof is administered as a single intravenous (i.v.) dose in 6-week old wild-type FVB mice. Exemplary PK studies were conducted using wtCNP22. Six-week old FVB/N mice were intravenously administered wtCNP22 in a single dose at 100 nmol/kg.
# NPR-B [4] = molecular target: NPR-B (Homo sapiens, UniProt P20594); details: read-out: affinity to NPR-B; cited from earlier work
# NPR-C = NPR-C (Homo sapiens, UniProt P17342); details: read-out: affinity to NPR-C; cited from earlier work
# Chain of NPR-C (P17342 27-541, species assumed): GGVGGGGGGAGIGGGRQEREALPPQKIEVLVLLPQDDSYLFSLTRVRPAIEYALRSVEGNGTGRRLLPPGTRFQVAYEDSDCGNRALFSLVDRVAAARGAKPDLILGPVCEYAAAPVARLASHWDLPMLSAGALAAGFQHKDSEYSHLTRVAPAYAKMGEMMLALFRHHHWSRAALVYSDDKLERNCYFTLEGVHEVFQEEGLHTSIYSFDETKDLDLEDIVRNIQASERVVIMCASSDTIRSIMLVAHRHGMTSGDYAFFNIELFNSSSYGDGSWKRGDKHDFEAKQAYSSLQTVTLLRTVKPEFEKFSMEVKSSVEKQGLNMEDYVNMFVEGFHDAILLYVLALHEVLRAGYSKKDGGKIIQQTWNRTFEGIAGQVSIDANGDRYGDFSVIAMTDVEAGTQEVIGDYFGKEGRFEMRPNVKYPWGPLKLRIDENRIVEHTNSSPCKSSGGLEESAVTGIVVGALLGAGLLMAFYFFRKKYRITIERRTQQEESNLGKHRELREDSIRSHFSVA
# Chain of neutral endopeptidase (NEP) (P08473 whole entry): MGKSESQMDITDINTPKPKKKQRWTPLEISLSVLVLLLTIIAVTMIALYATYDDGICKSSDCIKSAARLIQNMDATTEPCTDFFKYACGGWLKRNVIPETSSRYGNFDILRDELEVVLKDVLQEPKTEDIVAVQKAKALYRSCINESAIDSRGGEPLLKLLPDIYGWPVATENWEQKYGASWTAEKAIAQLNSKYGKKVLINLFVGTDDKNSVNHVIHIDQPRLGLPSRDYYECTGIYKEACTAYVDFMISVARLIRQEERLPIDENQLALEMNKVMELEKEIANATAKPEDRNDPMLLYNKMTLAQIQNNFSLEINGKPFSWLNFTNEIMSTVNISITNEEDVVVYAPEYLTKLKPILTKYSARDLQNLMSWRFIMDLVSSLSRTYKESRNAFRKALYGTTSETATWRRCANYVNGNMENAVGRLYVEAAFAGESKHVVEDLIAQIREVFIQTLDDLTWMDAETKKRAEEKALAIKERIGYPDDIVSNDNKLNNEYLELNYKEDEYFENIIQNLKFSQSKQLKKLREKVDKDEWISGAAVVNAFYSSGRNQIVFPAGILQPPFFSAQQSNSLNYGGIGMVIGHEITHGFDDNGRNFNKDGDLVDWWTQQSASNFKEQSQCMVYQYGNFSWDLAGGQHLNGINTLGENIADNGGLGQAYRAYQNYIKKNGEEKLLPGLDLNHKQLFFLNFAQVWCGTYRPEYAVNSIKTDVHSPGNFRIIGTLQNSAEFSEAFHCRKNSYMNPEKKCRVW
# Chain of Recombinant human NEP (P08473 whole entry): as above
# Chain of NPR-B (Homo sapiens, UniProt P20594) (P20594 23-1047, species assumed): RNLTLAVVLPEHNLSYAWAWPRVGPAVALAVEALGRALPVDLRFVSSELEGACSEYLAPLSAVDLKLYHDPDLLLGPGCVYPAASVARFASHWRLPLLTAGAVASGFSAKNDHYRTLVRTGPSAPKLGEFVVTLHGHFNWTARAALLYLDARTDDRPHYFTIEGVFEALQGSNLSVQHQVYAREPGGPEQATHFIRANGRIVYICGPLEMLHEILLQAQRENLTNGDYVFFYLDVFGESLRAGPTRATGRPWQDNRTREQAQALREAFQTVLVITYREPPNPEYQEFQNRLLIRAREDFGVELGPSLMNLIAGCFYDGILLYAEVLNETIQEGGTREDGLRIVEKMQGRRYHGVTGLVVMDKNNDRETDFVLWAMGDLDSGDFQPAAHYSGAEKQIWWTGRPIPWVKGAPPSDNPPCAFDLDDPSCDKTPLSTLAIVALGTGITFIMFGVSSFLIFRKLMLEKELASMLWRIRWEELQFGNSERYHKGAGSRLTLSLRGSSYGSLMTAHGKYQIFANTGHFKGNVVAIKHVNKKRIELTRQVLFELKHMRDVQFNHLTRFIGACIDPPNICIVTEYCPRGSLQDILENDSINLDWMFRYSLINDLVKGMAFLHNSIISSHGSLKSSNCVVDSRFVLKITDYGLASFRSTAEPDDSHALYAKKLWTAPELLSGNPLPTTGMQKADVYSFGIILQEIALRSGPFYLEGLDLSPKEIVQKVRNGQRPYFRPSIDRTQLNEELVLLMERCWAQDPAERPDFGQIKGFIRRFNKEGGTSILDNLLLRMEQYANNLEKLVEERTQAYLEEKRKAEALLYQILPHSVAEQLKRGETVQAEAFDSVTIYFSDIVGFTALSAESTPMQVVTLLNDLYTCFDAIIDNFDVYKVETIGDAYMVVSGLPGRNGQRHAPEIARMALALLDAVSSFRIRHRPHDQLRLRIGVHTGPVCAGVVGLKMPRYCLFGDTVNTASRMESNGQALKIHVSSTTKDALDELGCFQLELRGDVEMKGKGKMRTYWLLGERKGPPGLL
compound,measurement,setting,value
"CC[C@H](C)[C@@H]1NC(=O)[C@H](CCCNC(=N)N)NC(=O)[C@H](CC(=O)O)NC(=O)[C@H](CC(C)C)NC(=O)[C@H](CCCCN)NC(=O)[C@H](CC(C)C)NC(=O)CNC(=O)[C@H](Cc2ccccc2)NC(=O)[C@@H](NC(=O)CNC(=O)[C@H](CCCCN)NC(=O)[C@H](CO)NC(=O)[C@H](CC(C)C)NC(=O)CN)CSSC[C@@H](C(=O)O)NC(=O)CNC(=O)[C@H](CC(C)C)NC(=O)CNC(=O)[C@H](CO)NC(=O)[C@H](CCSC)NC(=O)[C@H](CO)NC(=O)CNC1=O [CNP22, CNP-22]",sites hydrolyzed on NEP digestion,Recombinant human NEP,all possible sites were unexpectedly hydrolyzed
same,half-life at 100 uM,[1],80 min
same,cGMP response relative to 1 uM CNP22 (%) at 0.01 µM,"NPR-B [2]; 10 nM natriuretic peptide, read-out: cGMP Response rel. to 1 uM CNP22, 10 nM",46 ± 10%
same,cGMP response relative to 1 uM CNP22 (%) at 1 µM,"NPR-B [2]; 1 uM natriuretic peptide, read-out: cGMP Response rel. to 1 uM CNP22, 1 uM",100 ± 13%
same,AUC,"[3]; iv, 20 nmol/kg",5.33 nM·h
same,half-life,"[3]; iv, 20 nmol/kg",1.42 min
same,bioavailability,"[3]; sc, 50 nmol/kg",19%
same,half-life,"[3]; sc, 50 nmol/kg",10 min
same,half-life,in vivo,0.76 to 1.03 min
same,Kd,NPR-B [4],0.007 to 0.03 nM
same,Kd,NPR-C,0.011 to 0.14 nM
